Laboratory results taken from PubChem BioAssay AID1996.
Converted amounts (≈) assume the structure as drawn.

details: buffer; pH 7.4; 200.0 µM

First: COC(=O)Nc1nc(-c2cc(Cl)ccc2Cl)cs1
Second: O=C(Nc1nc(-c2ccc(F)cc2)cs1)c1cccnc1
The solubility kinetic of the first is lower: < 0.3 µg/mL for the first, 0.6 µg/mL (≈ 2 µM) for the second.

Compared with `Cc1ccc(C(=O)O/N=C2/CC3CCC2(C)[C@@]3(C)CBr)cc1` (some centres not stated), `Cc1cccc(C(C)C)c1NC(=O)c1ccc(OCC2CCCO2)cc1` (configuration not stated) is higher in solubility kinetic: < 0.8 µg/mL for the first, 12.1 µg/mL (≈ 34.2 µM) for the second.

First: C#Cc1ccc(CN2CCN(Cc3ccsc3)C(CCO)C2)cc1 (configuration not stated)
Second: O=[N+]([O-])c1ccccc1CN1CCN(Cc2ccc3ccccc3c2)CC1
The solubility kinetic of the first is 9.3-fold higher: 36.3 µg/mL (≈ 107 µM) for the first, 3.9 µg/mL (≈ 10.8 µM) for the second.

`C=CCOc1ccc(CNc2ccc3[nH]c(=O)[nH]c3c2)cc1` and `N#Cc1ccc(OCC(=O)Nc2ccc(S(=O)(=O)N3CCOCC3)cc2)cc1` are within 1.5-fold of each other in solubility kinetic: 7.9 µg/mL (≈ 26.7 µM) for the first, 5.5 µg/mL (≈ 13.7 µM) for the second.

`COc1cccc(NC(=O)CN(C)C(=O)C2CC3C=CC2C3)c1` (configuration not stated) and `COc1cccc(NC(=O)C(c2ccccc2)N2CCNC(=O)C2)c1` (configuration not stated) cannot be ordered by solubility kinetic: > 47.2 µg/mL for the first, > 50.9 µg/mL for the second.

Going from `CCCOC(=O)Nc1sc2c(c1C(N)=O)CCCC2` to `CC1CCCCC1NC(=O)COC(=O)CNC(=O)c1cccc(F)c1` (configuration not stated), the solubility kinetic rises from 1.3 µg/mL (≈ 4.6 µM) to 51.2 µg/mL (≈ 146 µM) (39-fold).

`CCC(C(=O)Nc1nc(C)c(C)s1)c1ccccc1` (configuration not stated) and `CCN(CC)C(=O)Oc1cc(COC)nc(-c2ccccc2)n1` are within 1.5-fold of each other in solubility kinetic: 38.3 µg/mL (≈ 140 µM) for the first, 39.5 µg/mL (≈ 125 µM) for the second.

First: CN(CC(=O)Nc1ccc(OC(F)(F)F)cc1)C(=O)Cc1cccs1
Second: CN(CC1COc2ccccc2O1)C(=O)Cn1cc(C(F)(F)F)ccc1=O (configuration not stated)
The solubility kinetic of the first is lower: 9.3 µg/mL (≈ 25 µM) for the first, > 57.4 µg/mL for the second.

Going from `O=S(=O)(Nc1ccc(Br)cn1)c1ccc2ccccc2c1` to `Cc1ccc(NS(=O)(=O)c2ccc(C(=O)NCc3ccccn3)cc2)cc1`, the solubility kinetic rises from 1.3 µg/mL (≈ 3.58 µM) to 53.8 µg/mL (≈ 141 µM) (41-fold).

`CC(=O)Nc1cccc(NC=C(C#N)C#N)c1` and `CCOC(=O)/C=C/C(=O)OCC(=O)Nc1cccc(Br)c1` are within 1.5-fold of each other in solubility kinetic: 11.7 µg/mL (≈ 51.7 µM) for the first, 13.8 µg/mL (≈ 38.7 µM) for the second.

Compared with `CCOC(=O)N1CCN(C(=O)/C=C/c2ccc(OC)cc2)CC1`, `O=C(c1ccc(Cl)nc1)N1CCN(C/C=C/c2ccccc2)CC1` is higher in solubility kinetic: 36.1 µg/mL (≈ 113 µM) for the first, > 51.3 µg/mL for the second.

First: O=C(Nc1ccc([N+](=O)[O-])cc1)OCCc1ccccn1
Second: Cc1cnc(C(=O)OCC(=O)Nc2cccc3ccccc23)cn1
The solubility kinetic of the first is lower: 0.6 µg/mL (≈ 2.09 µM) for the first, > 48.2 µg/mL for the second.

`O=C1C2C3C=CC(C2C(=O)N1CCO)C1C(=O)N(CCO)C(=O)C31` (configuration not stated) and `O=C(CN1C(=O)c2cccc3cccc(c23)C1=O)N1CCOCC1` cannot be ordered by solubility kinetic: > 50.1 µg/mL for the first, > 48.7 µg/mL for the second.

`COc1cc2c(C#N)c(N3CCCCC3)nc(N)c2c(N)n1` and `O=S(=O)(CCN1CCCCC1)Oc1ccc(Cl)cc1Cl` are within 1.5-fold of each other in solubility kinetic: 39.8 µg/mL (≈ 133 µM) for the first, 50.5 µg/mL (≈ 149 µM) for the second.

Compared with `CCSCc1nc(N)nc(NCCc2ccccc2)n1`, `CCCCc1nc(C(N)=O)c2[nH]c(=O)n(-c3ccccc3F)c2n1` is 9.4-fold lower in solubility kinetic: 34.7 µg/mL (≈ 120 µM) for the first, 3.7 µg/mL (≈ 11.2 µM) for the second.

Going from `Nc1ncnc(Oc2cccc(C(F)(F)F)c2)c1[N+](=O)[O-]` to `CC(O)c1ccc(Oc2cnccn2)cc1` (configuration not stated), the solubility kinetic rises from 7.6 µg/mL (≈ 25.3 µM) to > 32.4 µg/mL.

Compared with `Cc1cc(=O)n(C)c2ccc(S(=O)(=O)N3CCOCC3)cc12`, `CCOc1ccc(NC(=O)C2CCCN(S(C)(=O)=O)C2)cc1` (configuration not stated) is 11-fold lower in solubility kinetic: 46.5 µg/mL (≈ 144 µM) for the first, 4.1 µg/mL (≈ 12.6 µM) for the second.

Going from `O=C(N/N=C/c1ccc(O)c(O)c1)C1CC1` to `O=[N+]([O-])c1ccc(N2CCSCC2)cc1O`, the solubility kinetic falls from > 33 µg/mL to 4.1 µg/mL (≈ 17.1 µM).

Compared with `CSc1ncc(C(=O)Nc2cccc(Cl)c2C)c(C)n1`, `CSc1ccccc1NC(=O)COC(=O)c1ccc(O)cc1` is 1.5-fold lower in solubility kinetic: 18.8 µg/mL (≈ 61.1 µM) for the first, 12.2 µg/mL (≈ 38.4 µM) for the second.

`CC(NC(=O)CC1CCCCC1)c1ccccc1` (configuration not stated) and `COc1ccccc1C1CCN(C(=O)c2ccccc2)CC1` cannot be ordered by solubility kinetic: > 36.8 µg/mL for the first, 42.4 µg/mL (≈ 144 µM) for the second.

Going from `Oc1cccc(C(=S)N2CCC(Cc3ccccc3)CC2)c1` to `O=C(CN1CCN(c2ccc(O)cc2)CC1)N1CCc2ccccc21`, the solubility kinetic falls from 15 µg/mL (≈ 48.2 µM) to 5 µg/mL (≈ 14.8 µM) (3-fold).

First: O=C(Nc1cccc(NC(=O)c2ccccc2)n1)c1ccccc1
Second: COCc1cc(=O)[nH]c2c1c(-c1ccccc1)nn2C
The solubility kinetic of the first is lower: 16.8 µg/mL (≈ 52.9 µM) for the first, > 40.4 µg/mL for the second.

`NC(=O)c1ccsc1NC(=O)CSc1nncs1` and `CCN(CC)C(=O)COC(=O)C1=NN(c2cc(C)ccc2C)C(=O)CC1` cannot be ordered by solubility kinetic: > 45.1 µg/mL for the first, > 53.9 µg/mL for the second.

With `CCOC(=O)C1CCN(C(=S)NC2CC3C=CC2C3)CC1` (configuration not stated) the solubility kinetic was > 46.3 µg/mL.
